Laboratory results reported in patent US8871946B2, “Benzimidazole-4-carboxamide derivatives, their preparation methods, pharmaceutical compositions and their uses” (Zhejiang Medicine Co., Ltd. Xinchang Pharmaceutical Factory, priority 2009, dated 2014).
Values after ≈ are worked out from the molar mass of the structure shown. Like-named read-outs stand apart in the source and are kept apart here.

Test system: coxsackie B3 viruses
Assay: Measures of anti-coxsackie B3 viruses activity of the compounds in Vero cells
Format: cell-based
Excerpt: Measures of Anti-Coxsackie B3 Viruses Activity of the Compounds The products are applied for measures of antivirus properties of Vero cells. Refer to the results of Table 3: datum of anti-coxsackie B3 viruses activities of some compounds. […] IC50 indicates half inhibitory concentration for viruses. RBV indicates triazole nucleoside, is also called ribavirin, virazole.

[1] = half inhibitory concentration for viruses

SMILES	IC50 [1] [µg/mL]	IC50 (Enterovirus B, B3, half inhibitory concentration for viruses, read-out: IC50) [µg/mL]
CN1CCN(C)C(c2nc3c(C(=O)Nc4ccc(N)cc4)cccc3[nH]2)C1 (centres unmarked) [2-(2-N-methyl-4-N-methylpiperazinyl)-1H-benzimidazole-4-(N-p-aminophenyl)amide]	3.5 (≈ 9.6 µM)	
COc1ccnc(-c2nc3c(C(=O)Nc4ccccc4O)cccc3[nH]2)c1 [2-(4-methoxypyridyl)-1H-benzimidazole-4-(N-o-hydroxyphenyl)amide]	16.2 (≈ 45 µM)	
Nc1ccc(NC(=O)c2cccc3[nH]c(-c4cncs4)nc23)cc1 [5-thiazolyl-1H-benzimidazole-4-(N-p-aminophenyl)amide]	13.5 (≈ 40.3 µM)	
O=C(NC(CO)C(O)c1ccccc1[N+](=O)[O-])c1cccc2[nH]c(N3CCNCC3)nc12 (centres unmarked) [(L)-2-N-piperazinyl-1H-benzimidazole-4-[N-(1-hydroxymethyl-2-o-nitrophenylhydroxyethyl)]amide]	4.2 (≈ 9.54 µM)	
O=C(Nc1ccccc1F)c1cccc2[nH]c(-c3ccc[nH]3)nc12 [2-(2-pyrrolyl)-1H-benzimidazole-4-(N-o-fluorophenyl)amide]	9.2 (≈ 28.7 µM)	
CN(C)c1ccnc(-c2nc3c(C(=O)NC(CO)C(O)c4ccc([N+](=O)[O-])cc4)cccc3[nH]2)c1 (centres unmarked) [(L)-2-(4-dimethylaminopyridyl)-1H-benzimidazole-4-[N-(1-hydroxymethyl-2-p-nitrophenylhydroxyethyl)]amide]	10.2 (≈ 21.4 µM)	
Cc1cc(C)c(-c2nc3c(C(=O)Nc4ccccc4O)cccc3[nH]2)[nH]1 [2-(3,5-dimethyl-2-pyrrolyl)-1H-benzimidazole-4-(N-o-hydroxyphenyl)amide]	10.2 (≈ 29.4 µM)	
COc1ccnc(-c2nc3c(C(=O)Nc4ccc(N)cc4)cccc3[nH]2)c1 [2-(4-methoxypyridyl)-1H-benzimidazole-4-(N-p-aminophenyl)amide]	13.4 (≈ 37.3 µM)	
O=C(NC(CO)C(O)c1ccc([N+](=O)[O-])cc1)c1cccc2[nH]c(-c3cccs3)nc12 (centres unmarked) [(L)-2-(2-thienyl)-1H-benzimidazole-4-[N-(1-hydroxymethyl-2-p-nitrophenylhydroxyethyl)]amide]	15.90 (≈ 36.3 µM)	
CN1CCN(C)C(c2nc3c(C(=O)NC(CO)C(O)c4ccc([N+](=O)[O-])cc4)cccc3[nH]2)C1 (centres unmarked) [(L)-2-(2-N-methyl-4-N-methylpiperazinyl)-1H-benzimidazole-4-[N-(1-hydroxymethyl-2-p-nitrophenylhydroxyethyl)]amide]	9.2 (≈ 19.6 µM)	
Cc1nc(-c2nc3c(C(=O)Nc4ccccc4F)cccc3[nH]2)sc1N [2-(4-methyl-5-aminothiazolyl)-1H-benzimidazole-4-(N-o-fluorophenyl)amide]	10.2 (≈ 27.8 µM)	
O=C(Nc1ccccc1O)c1cccc2[nH]c(-c3cccnn3)nc12 [2-(3-pyridazinyl)-1H-benzimidazole-4-(N-o-hydroxyphenyl)amide]	15.2 (≈ 45.9 µM)	
O=C(Nc1ccccc1F)c1cccc2[nH]c(-c3cnccn3)nc12 [2-(2-pyrazinyl)-1H-benzimidazole-4-(N-o-fluorophenyl)amide]	6.5 (≈ 19.5 µM)	
O=C(Nc1ccccc1O)c1cccc2[nH]c(-c3cnccn3)nc12 [2-(2-pyrazinyl)-1H -benzimidazole-4-(N-o-hydroxyphenyl)amide]	3.5 (≈ 10.6 µM)	
O=C(NC(CO)C(O)c1ccc([N+](=O)[O-])cc1)c1cccc2[nH]c(-c3c[nH]c4ccccc34)nc12 [(L-)2-(3-indolyl)-1H-benzimidazole-4-[N-(1-hydroxymethyl-2-p-nitrophenylhydroxyethyl)]amide]	9.6 (≈ 20.4 µM)	
Cc1ccccc1NC(=O)c1cccc2[nH]c(-c3ccc(N)s3)nc12 [2-(5-amino-2-thienyl)-1H-benzimidazole-4-(N-o-methylphenyl)amide]	8.7 (≈ 25 µM)	
O=C(NC(CO)C(O)c1ccc([N+](=O)[O-])cc1)c1cccc2[nH]c(-c3cc(O)c(O)c(O)c3)nc12 (centres unmarked) [(L)-2-(3,4,5-trihydroxyphenyl)-1H-benzimidazole-4-[N-(1-hydroxymethyl-2-p-nitrophenylhydroxyethyl)]amide]	10.2 (≈ 21.2 µM)	
COc1cccc(-c2nc3c(C(=O)NC(CO)C(O)c4ccc([N+](=O)[O-])cc4)cccc3[nH]2)n1 (centres unmarked) [(L)-2-(6-methoxypyridyl)-1H-benzimidazole-4-[N-(1-hydroxymethyl-2-p-nitrophenylhydroxyethyl)]amide]	11.2 (≈ 24.2 µM)	
O=C(Nc1ccccc1F)c1cccc2[nH]c(N3CCNCC3)nc12 [2-N-piperazinyl-1H-benzimidazole-4-(N-o-fluorophenyl)amide]	4.8 (≈ 14.1 µM)	
CC(NC(=O)c1cccc2[nH]c(-c3ccc([N+](=O)[O-])s3)nc12)C(O)c1ccc(Cl)cc1 (centres unmarked) [2-(5-nitro-2-thienyl)-1H-benzimidazole-4-(N-(1-methyl-2-p-chlorophenylhydroxyethyl))-amide]	7.12 (≈ 15.6 µM)	
CN(C)c1ccnc(-c2nc3c(C(=O)Nc4ccc(N)cc4)cccc3[nH]2)c1 [2-(4-dimethylaminopyridyl)-1H-benzimidazole-4-(N-p-aminophenyl)amide]	10.2 (≈ 27.4 µM)	

SMILES	IC50 [1] [µg/mL]	IC50 (Enterovirus B, B3, half inhibitory concentration for viruses, read-out: IC50) [µg/mL]
O=C(NC(CO)C(O)c1ccc([N+](=O)[O-])cc1)c1cccc2[nH]c(-c3ccc([N+](=O)[O-])s3)nc12 (centres unmarked) [(L)-2-(5-nitro-2-thienyl)-1H-benzimidazole-4-[N-(1-hydroxymethyl-2-p-nitrophenylhydroxyethyl)]amide]	10.69 (≈ 22.1 µM)	
Cc1cc(C)c(-c2nc3c(C(=O)NC(CO)C(O)c4ccc([N+](=O)[O-])cc4)cccc3[nH]2)[nH]1 (centres unmarked) [(L)-2-(3,5-dimethyl-2-pyrrolyl)-1H-benzimidazole-4-[N-(1-hydroxymethyl-2-p-nitrophenylhydroxyethyl)]amide]	8.6 (≈ 19.1 µM)	
O=C(NC(CO)C(O)c1ccc([N+](=O)[O-])cc1)c1cccc2[nH]c(-c3cccnn3)nc12 (centres unmarked) [(L)-2-(3-pyridazinyl)-1H-benzimidazole-4-[N-(1-hydroxymethyl-2-p-nitrophenylhydroxyethyl)]amide]	5.8 (≈ 13.4 µM)	
Nc1ncnc(Cl)c1-c1nc2c(C(=O)Nc3ccccc3F)cccc2[nH]1 [2-(4-amino-6-chloro-5-pyrimidinyl)-1H-benzimidazole-4-(N-o-fluorophenyl)amide]	11.3 (≈ 29.5 µM)	
CC(NC(=O)c1cccc2[nH]c(-c3cccs3)nc12)C(O)c1ccc(Cl)cc1 (centres unmarked) [2-(2-thienyl)-1H-benzimidazole-4-[N-(1-methyl-2-p-chlorophenylhydroxyethyl)]amide]	5.30 (≈ 12.9 µM)	
Nc1ccc(-c2nc3c(C(=O)Nc4ccc(O)cc4)cccc3[nH]2)s1 [2-(5-amino-2-thienyl)-1H-benzimidazole-4-(N-p-hydroxyphenyl)amide]	6.5 (≈ 18.6 µM)	
Nc1ccc(NC(=O)c2cccc3[nH]c(-c4ncccn4)nc23)cc1 [2-(2-pyrimidinyl)-1H-benzimidazole-4-(N-p-aminophenyl)amide]	9.8 (≈ 29.7 µM)	
Nc1ccc(NC(=O)c2cccc3[nH]c(N4CCNCC4)nc23)cc1 [2-N-piperazinyl-1H-benzimidazole-4-(N-p-aminophenyl)amide]	6.3 (≈ 18.7 µM)	
O=C(Nc1ccccc1F)c1cccc2[nH]c(-c3ccc([N+](=O)[O-])s3)nc12 [2-(5-nitro-2-thienyl)-1H-benzimidazole-4-(N-(2-fluorophenyl))-amide]	>9.25	
O=C(NC(CO)C(O)c1ccc([N+](=O)[O-])cc1)c1cccc2[nH]c(-c3ccc[nH]3)nc12 (centres unmarked) [(L)-2-(2-pyrrolyl)-1H-benzimidazole-4-[N-(1-hydroxymethyl-2-p-nitrophenylhydroxyethyl)]amide]	5.3 (≈ 12.6 µM)	
O=C(Nc1ccccc1O)c1cccc2[nH]c(-c3ncccn3)nc12 [2-(2-pyrimidinyl)-1H-benzimidazole-4-(N-o-hydroxyphenyl)amide]	7.8 (≈ 23.5 µM)	
NC(=O)c1ncn([C@@H]2O[C@H](CO)[C@@H](O)[C@H]2O)n1 [RBV, ribavirin, reference compound]		354 (≈ 1450 µM)
Nc1ccc(NC(=O)c2cccc3[nH]c(-c4c(N)ncnc4Cl)nc23)cc1 [2-(4-amino-6-chloro-5-pyrimidinyl)-1H-benzimidazole-4-(N-p-aminophenyl)amide]	14.1 (≈ 37.1 µM)	
Cn1cccc1-c1nc2c(C(=O)Nc3ccccc3F)cccc2[nH]1 [2-(N-methyl-2-pyrrolyl)-1H-benzimidazole-4-(N-o-fluorophenyl)amide]	13.2 (≈ 39.5 µM)	
O=C(Nc1ccccc1F)c1cccc2[nH]c(-c3cccs3)nc12 [2-thienyl-1H-benzimidazole-4-(N-(2-fluorophenyl)-amide]	1.06 (≈ 3.14 µM)	
Cc1nc(-c2nc3c(C(=O)NC(CO)C(O)c4ccc([N+](=O)[O-])cc4)cccc3[nH]2)sc1N (centres unmarked) [(L)-2-(4-methyl-5-aminothiazolyl)-1H-benzimidazole-4-[N-(1-hydroxymethyl-2-p-nitrophenylhydroxyethyl)]amide]	8.9 (≈ 19 µM)	
O=C(NC(CO)C(O)c1ccc([N+](=O)[O-])cc1)c1cccc2[nH]c(C3CCCCN3)nc12 (centres unmarked) [(L)-2-(2-piperidinyl)-1H-benzimidazole-4-[N-(1-hydroxymethyl-2-p-nitrophenylhydroxyethyl)]amide]	17.2 (≈ 39.1 µM)	
Cc1ccc(-c2nc3c(C(=O)Nc4ccccc4O)cccc3[nH]2)s1 [2-(5-methy-2-thienyl)-1H-benzimidazole-4-(N-o-hydroxyphenyl)amide]	18.5 (≈ 52.9 µM)	
O=C(Nc1ccccc1F)c1cccc2[nH]c(-c3ncccn3)nc12 [2-(2-pyrimidinyl)-1H-benzimidazole-4-(N-o-fluorophenyl)amide]	8.8 (≈ 26.4 µM)	
O=C(Nc1ccccc1F)c1cccc2[nH]c(-c3cccnn3)nc12 [2-(3-pyridazinyl)-1H-benzimidazole-4-(N-o-fluorophenyl)amide]	12.3 (≈ 36.9 µM)	
